Test results reported in patent US4552878A, “Benzo- and thieno-triazine-1,2,3 ones-4” (Lipha, Lyonnaise Industrielle Pharmaceutique, priority 1982, dated 1985).
Where a name gives a salt, the structure may show the parent alone.

Legend:
[1] = Acute oral toxicity, lethal doses 50 (LD50); conditions: mouse, in vivo
[2] = system: central effects of 5-hydroxytryptophan; assay: Potentiation of the central effects of 5-hydroxytryptophan (5-HTP); format: in vivo; conditions: Mus musculus, ip; Swiss mice, I.P., 30 minutes before 300 mg/kg 5-HTP I.P.; observed 30 min later for 1 min; read-out: Potentiation of the 5-HTP ED50 DE50
Method: This potentiation objectifying the axonal blocking of the reabsorption of the seratonin at the serotoninergic nerve ends was studied by the method described by T. M. Pugsley and […] The mice are observed 30 min later, for 1 min, during which the following sterotyped movements are classified: extension of the hind paws, trembling, excitement, head shaking.

SMILES	LD50 [1] [mg/kg]	ED50 [2] [mg/kg]
O=c1c2ccccc2nnn1CCCN1CCN(c2cccc(Cl)c2)CC1 [Example 1, [[(chloro-3 phenyl)-4 piperazinyl-1]-3 propyl]-3-3H-benzotriazine-1,2,3 one-4, hydrochloride]	> 3200	3
O=c1c2ccccc2nnn1CCCN1CCN(c2ccccc2Cl)CC1 [Example 6, [[(Chloro-2 phenyl-4 piperazinyl-1]-3 propyl]3-3H-benzotriazine-1,2,3 one 4, hydrochloride]	–	12
Cc1ccccc1N1CCN(CCCn2nnc3ccccc3c2=O)CC1 [Example 9, [[(Methyl-2 phenyl)-4 piperazinyl-1]-3 propyl]-3-3H-benzotriazine-1,2,3 one-4 hydrochloride]	–	5
O=c1c2ccccc2nnn1CCCN1CCN(c2cccc(F)c2)CC1 [Example 10, [[(Fluoro-3phenyl)-4 piperazinyl-1]-3 propyl]-3H-benzotriazine-1,2,3 one-4, hydrochloride]	1500	14
O=c1c2ccccc2nnn1CCCN1CCN(c2ccccc2)CC1 [Example 11, [(Phenyl-4 piperazinyl-1)-3 propyl]-3-3H-benzotriazine-1,2,3 one-4 hydrochloride]	1000	8
COc1cccc(N2CCN(CCCn3nnc4ccccc4c3=O)CC2)c1 [Example 15, [[(Methoxy-3 phenyl)-4 piperazinyl-1]-3 propyl]-3-3H-benzotriazine-1,2,3 one-4]	–	9
COc1ccc(N2CCN(CCCn3nnc4ccccc4c3=O)CC2)cc1 [Example 16, [[(Methoxy-4 phenyl)-4 piperazinyl-1]-3propyl]-3-3H-benzotriazine-1,2,3 one-4]	–	11
O=c1c2ccc(Cl)cc2nnn1CCCN1CCN(c2cccc(Cl)c2)CC1 [Example 19, Chloro-7 [[(chloro-3 phenyl)-4 piperazinyl-1]-3 propyl]-3-3H-benzotriazine-1,2,3 one-4 hydrochloride]	–	10
Cc1ccc2nnn(CCCN3CCN(c4cccc(Cl)c4)CC3)c(=O)c2c1 [Example 20, [[(Chloro-3 phenyl)-1 piperazinyl-1]-3 propyl]-3 methyl-6-3H-benzotriazine-1,2,3 one-4, hydrochloride]	> 3200	8
O=c1c2ccsc2nnn1CCCN1CCN(c2cccc(Cl)c2)CC1 [Example 23, [[(Chloro-3 phenyl)-4-piperazinyl-1]3 propyl]-3-3H-thieno[2,3-d]triazine-1,2,3 one-4 hydrochloride]	1060	3
O=c1c2ccccc2nnn1CCCN1CCN(c2ccc(F)c(Cl)c2)CC1 [Example 27, [[(Chloro-3 fluoro-4 phenyl)-4 piperazinyl-1]-3 propyl]-3-3H-benzotriazine-1,2,3 one-4 hydrochloride]	–	8
O=c1c2cc(Cl)ccc2nnn1CCCN1CCN(c2ccccc2)CC1 [Example 28, Chloro-6[(phenyl-4 piperazinyl-1)-3 propyl]-3-3H-benzotriazine-1,2,3 one-4 dihyrochloride]	–	5
COc1ccc(N2CCN(CCCn3nnc4ccccc4c3=O)CC2)cc1OC [Example 29, [[(Dimethoxy-3,4 phenyl)-4 piperazinyl-1]-3 propyl]-3-3H-benzotriazine-1,2,3 one-4 dihydrochloride]	–	12
Cl.O=c1n(CCCN2CCN(c3cccc(Cl)c3)CC2)nc2ccccn12 [Trazodone Hydrochloride, 2-[3-[4-(3-chlorophenyl)-1-piperazinyl]propyl]-1,2,4-triazolo[4,3-a]pyridin-3 (2H)-one hydrochloride, reference compound]	650	–
